Laboratory results reported in patent US8614253B2, “IRE-1α inhibitors” (MannKind Corporation, priority 2007, dated 2013).
One block for each compound: values may come before it.

How the values were obtained:
IRE-1α [1] = biological target: T1, IRE-1α (Homo sapiens (Human), UniProt O75460); assay: IRE-1α assay: in vitro cleavage of mini-XBP-1 mRNA stem-loop substrate by GST-IRE-1α; type: biochemical
Procedure: A fusion protein comprising glutathione S transferase (GST) and human IRE-1α (GST-IRE-1α) was obtained from a 500 ml baculovirus-infected insect cell culture and used to measure IRE-1α activity in vitro.
Five μl of a reaction mixture comprising 1× reaction buffer (5× reaction buffer is 100 mM Hepes pH 7.5, 250 mM KOAc, 2.5 mM MgCl2), 3 mM DTT, and 0.4% polyethylene glycol water were added to each well of 384 well plates. Twenty-five nanoliters of a 1 mM test compound solution were added to test wells. […] Negative control wells contained only reaction mixture and test compound.
The plates were again spun at 1200 rpm for 30 seconds.
The plates were covered with lids and incubated for one hour at 30° C. The plates were then transferred to an ACQUEST™ microplate reader. Data was analyzed using data analysis software, and the percent activity of IRE-1α was calculated.
Target sequence in this assay (O75460 19-977): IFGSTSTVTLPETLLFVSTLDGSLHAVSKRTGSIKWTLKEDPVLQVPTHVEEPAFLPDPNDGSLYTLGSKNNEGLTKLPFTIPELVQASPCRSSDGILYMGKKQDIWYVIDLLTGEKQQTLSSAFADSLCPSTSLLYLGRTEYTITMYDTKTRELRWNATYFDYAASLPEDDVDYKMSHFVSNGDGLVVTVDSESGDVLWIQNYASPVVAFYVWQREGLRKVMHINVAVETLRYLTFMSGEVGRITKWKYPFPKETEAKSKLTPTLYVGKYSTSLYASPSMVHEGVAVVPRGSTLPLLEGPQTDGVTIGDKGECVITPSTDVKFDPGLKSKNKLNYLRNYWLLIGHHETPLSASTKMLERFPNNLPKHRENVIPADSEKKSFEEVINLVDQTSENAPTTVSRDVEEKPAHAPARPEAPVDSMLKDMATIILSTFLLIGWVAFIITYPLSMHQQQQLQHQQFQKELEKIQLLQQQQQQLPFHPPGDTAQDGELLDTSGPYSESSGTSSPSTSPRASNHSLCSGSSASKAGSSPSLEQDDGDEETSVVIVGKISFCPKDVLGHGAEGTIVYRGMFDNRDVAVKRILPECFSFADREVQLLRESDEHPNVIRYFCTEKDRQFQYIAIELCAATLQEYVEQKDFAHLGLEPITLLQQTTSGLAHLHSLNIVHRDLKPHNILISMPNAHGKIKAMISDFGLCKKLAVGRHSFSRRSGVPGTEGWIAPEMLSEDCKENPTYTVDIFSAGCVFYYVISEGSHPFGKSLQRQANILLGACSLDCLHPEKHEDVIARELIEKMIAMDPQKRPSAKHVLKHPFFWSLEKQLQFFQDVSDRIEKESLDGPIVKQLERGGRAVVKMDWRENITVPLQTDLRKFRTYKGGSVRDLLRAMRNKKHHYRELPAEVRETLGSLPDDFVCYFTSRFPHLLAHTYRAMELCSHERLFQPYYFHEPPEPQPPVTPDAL

[2] = tested on: human myeloma RPMI8226 tumor xenografts; assay: RPMI8226 myeloma tumor xenograft in SCID mice; type: in vivo, mouse; conditions: 0.75 mg/kg IV twice weekly
IRE-1α [3] = biological target: T1, IRE-1α; assay: Phosphorylated IRE-1α and XBP1-splicing in RPMI8226 cells (Western blot, agarose gel); type: cell-based; conditions: 24 hour treatment, FIG. 6
Text: FIG. 6. […] The numbers indicate the concentration of bortezomib in nM.

[4] = tested on: RPMI-8226 multiple myeloma cells; assay: Proliferation of multiple myeloma cells (CellTiter-Glo); type: cell-based, human; conditions: RPMI8226 cells, 24 hours, FIG. 5
Procedure: FIG. 5. Graph showing inhibition of proliferation of multiple myeloma cells by IRE-1α inhibitor 11-28 (Example 11). RPMI-8226 multiple myeloma cells were seeded at 20,000 cells per well in RPMI culture medium containing 1% FBS and the required antibiotics. The plate was incubated overnight at 37° C., 95% air, 5% CO2. The following day, compound 11-28 or medium alone was added to wells, resulting in a final volume of 100 μl per well. The compound concentration ranged from 100 μM to 0 μM, with compounds diluted by a factor of 4. After addition of compound, the plate was incubated at 37° C., 95% air, 5% CO2 for 24 hours. Cell proliferation was measured using the CellTiter-Glo assay (Promega), following the manufacturer's instructions.
Proliferation assays using myeloma cell lines (U266, RPMI8226 and MM.1s) are used to determine ED50. Compounds are used as single agents and in combination with other chemotherapeutic drugs.

primary murine B cells = assay: IgM secretion after LPS stimulation of primary murine B cells; type: cell-based, mouse
Procedure: FIG. 9. Inhibition of IgM secretion after LPS stimulation of primary murine B cells with selected IRE-1α inhibitors. […] However, compounds had little effect when at added after 40 hours of stimulation; only slight inhibition at the highest dose. Methods were performed as previously described by Iwakoshi et al., Nature 4, 321-29, 2003 for B cell stimulation, plasma cell differentiation and IgM secretion. Primary B cells were Isolated from BALB/c splenocytes using mouse CD43 Microbeads (Miltenyi cat# 130-049-801) with 1×10^6 cells per treatment. Purified B cells were stimulated in B Cell Media at a final density of 1×10^6/ml/well in 24-well plates with 20 μg/ml LPS (Sigma cat# L4391). IRE-1α inhibitor compound 17-1 was added at various concentrations (50 μM, 10 μM, 2 μM, 0.4 μM and 0.08 μM) at specified time points (t=0, t=24 hr, t=40 hr, etc.) Cells were incubated for 48 hr at 37° C. At end of the incubation, cells were spun in a plate at 1500 rpm/3 min. Supernatants were collected for quantitation for IgM secretion using a mouse IgM ELISA Kit (Bethyl Labs cat# E90-101). B Cell medium included RPMI+10% FBS supplemented with NEAA, HEPES, NaPyr, PSQ, and β-mercaptoethanol.

IC50 (IRE-1α [1]; Table 3): 5750 nM
Compound: COc1cccc(C=O)c1O [drawing 238]

Compound: CC(C)C[C@H](NC(=O)[C@H](Cc1ccccc1)NC(=O)c1cnccn1)B(O)O [bortezomib, [(1R)-3-methyl-1-[[(2S)-1-oxo-3-phenyl-2-[(pyrazinylcarbonyl)amino]propyl]amino]butyl]boronic acid]
tumor growth [2]: suppression of tumor growth | levels of phosphorylated IRE-1α and XBP1-splicing (IRE-1α [3]): increases the levels of phosphorylated IRE-1α and XBP1-splicing

IC50 (IRE-1α [1]; values in text): 3000 nM
Compound: COc1cccc(C=O)c1O [o-vanillin, 2-hydroxy-3-methoxybenzaldehyde]

Compound: COc1cc(-c2cccs2)cc(C=O)c1O [11-28]
inhibition of proliferation [4]: inhibits the proliferation of RPMI8226 myeloma cells

Compound: CN(C)C(=O)c1ccc(-c2ccc3c(C=O)c(O)ccc3c2)cc1 [17-1, 4-(5-formyl-6-hydroxynaphthalen-2-yl)-N,N-dimethylbenzamide]
IgM secretion (primary murine B cells; added after 40 hours of stimulation): little effect | IgM secretion (primary murine B cells; added at beginning of stimulation and again at 24 hours): blocked IgM secretion at all doses tested down to 100 nM

IC50 (IRE-1α [1]; Table 3): 2370 nM
Compound: COc1cccc(C=O)c1O [drawing 230]

IC50 (IRE-1α [1]; Table 3): 80 nM
Compound: COc1ccc(Br)c(C=O)c1O [drawing 180]

IC50 (IRE-1α [1]; values in text): 30 nM
Compound: COc1ccc(Br)c(C=O)c1O [6-bromo o-vanillin]
